# Key:
# [1] = biological target: 5-hydroxytryptamine receptor 7 (Rattus norvegicus, UniProt P32305); test: Displacement of [3H]-CT from rat 5-HT7 receptor expressed in HEK293 cells by competitive radioligand binding assay; assay type: cell-based
# [2] = biological target: 5-hydroxytryptamine receptor 2A (Homo sapiens, UniProt P28223); test: Displacement of [3H]-ketanserin from human 5-HT2A receptor by competitive radioligand binding assay
# [3] = biological target: 5-hydroxytryptamine receptor 2B (Homo sapiens, UniProt P41595); test: Displacement of [3H]-ketanserin from human 5-HT2B receptor by competitive radioligand binding assay
# [4] = biological target: T1, 5-hydroxytryptamine receptor 2C (Homo sapiens, UniProt P28335); test: Displacement of [3H]-ketanserin from human 5-HT2C receptor by competitive radioligand binding assay
# T1 sequence (P28335 whole entry): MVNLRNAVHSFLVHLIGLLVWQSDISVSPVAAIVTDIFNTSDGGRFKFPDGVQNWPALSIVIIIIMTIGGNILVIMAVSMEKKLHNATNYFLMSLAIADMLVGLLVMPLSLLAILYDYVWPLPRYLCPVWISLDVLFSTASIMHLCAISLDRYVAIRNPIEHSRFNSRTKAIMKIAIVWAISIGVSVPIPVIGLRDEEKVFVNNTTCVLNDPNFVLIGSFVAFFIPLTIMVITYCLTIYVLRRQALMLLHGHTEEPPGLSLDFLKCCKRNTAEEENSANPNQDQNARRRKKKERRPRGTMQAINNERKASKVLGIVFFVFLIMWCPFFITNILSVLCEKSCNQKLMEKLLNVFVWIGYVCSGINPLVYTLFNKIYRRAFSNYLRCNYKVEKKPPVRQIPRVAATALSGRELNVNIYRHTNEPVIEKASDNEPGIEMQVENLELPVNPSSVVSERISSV
# [5] = biological target: T2, Adrenergic receptor alpha-1 (Rattus norvegicus, UniProt P15823+P23944+P43140); test: Displacement of […] from alpha1 adrenergic receptor in rat cortex membrane incubated for 60 mins by competitive radioligand binding assay; assay type: cell membranes
# T2 sequence (P15823 whole entry): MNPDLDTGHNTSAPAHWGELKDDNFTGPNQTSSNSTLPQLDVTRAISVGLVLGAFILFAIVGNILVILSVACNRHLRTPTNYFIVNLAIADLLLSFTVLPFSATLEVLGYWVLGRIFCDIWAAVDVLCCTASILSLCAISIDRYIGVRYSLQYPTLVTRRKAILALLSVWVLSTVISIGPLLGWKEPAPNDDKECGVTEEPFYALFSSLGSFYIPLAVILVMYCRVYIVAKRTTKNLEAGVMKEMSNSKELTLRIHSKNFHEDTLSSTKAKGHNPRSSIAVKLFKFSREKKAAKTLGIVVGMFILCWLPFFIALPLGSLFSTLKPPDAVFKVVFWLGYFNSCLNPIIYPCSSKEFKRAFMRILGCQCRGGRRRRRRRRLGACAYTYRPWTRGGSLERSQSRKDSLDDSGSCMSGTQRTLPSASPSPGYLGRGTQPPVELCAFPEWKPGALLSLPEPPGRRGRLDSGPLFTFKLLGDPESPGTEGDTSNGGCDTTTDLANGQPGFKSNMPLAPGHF
# T2 sequence (P23944 whole entry): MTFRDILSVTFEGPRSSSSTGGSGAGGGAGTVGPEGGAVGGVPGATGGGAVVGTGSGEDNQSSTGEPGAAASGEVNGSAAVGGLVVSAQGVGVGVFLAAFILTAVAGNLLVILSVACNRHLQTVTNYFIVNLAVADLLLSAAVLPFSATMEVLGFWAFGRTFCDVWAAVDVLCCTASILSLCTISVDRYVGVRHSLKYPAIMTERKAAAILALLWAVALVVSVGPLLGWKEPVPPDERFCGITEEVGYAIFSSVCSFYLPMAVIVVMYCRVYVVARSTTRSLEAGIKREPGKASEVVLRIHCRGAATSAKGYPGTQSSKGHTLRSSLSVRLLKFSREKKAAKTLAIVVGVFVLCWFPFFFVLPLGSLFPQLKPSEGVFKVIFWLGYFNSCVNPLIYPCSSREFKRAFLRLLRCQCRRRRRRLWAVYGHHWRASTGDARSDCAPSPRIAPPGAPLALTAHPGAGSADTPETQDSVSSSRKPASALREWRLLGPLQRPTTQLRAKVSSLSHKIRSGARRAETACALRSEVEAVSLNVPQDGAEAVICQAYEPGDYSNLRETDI
# T2 sequence (P43140 whole entry): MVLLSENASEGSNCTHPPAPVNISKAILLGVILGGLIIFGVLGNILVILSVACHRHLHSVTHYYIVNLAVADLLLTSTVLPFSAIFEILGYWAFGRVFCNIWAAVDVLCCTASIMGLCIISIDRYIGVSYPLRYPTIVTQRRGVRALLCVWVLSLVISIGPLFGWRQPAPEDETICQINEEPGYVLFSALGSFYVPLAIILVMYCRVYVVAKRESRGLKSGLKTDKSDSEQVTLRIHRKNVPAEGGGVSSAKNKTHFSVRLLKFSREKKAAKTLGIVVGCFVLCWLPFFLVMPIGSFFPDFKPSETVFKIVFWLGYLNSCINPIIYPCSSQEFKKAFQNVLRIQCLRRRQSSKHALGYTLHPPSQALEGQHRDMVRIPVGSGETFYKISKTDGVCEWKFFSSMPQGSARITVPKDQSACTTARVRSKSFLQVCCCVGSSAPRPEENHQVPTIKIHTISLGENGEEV
# Chain of 5-hydroxytryptamine receptor 7 (P32305 whole entry): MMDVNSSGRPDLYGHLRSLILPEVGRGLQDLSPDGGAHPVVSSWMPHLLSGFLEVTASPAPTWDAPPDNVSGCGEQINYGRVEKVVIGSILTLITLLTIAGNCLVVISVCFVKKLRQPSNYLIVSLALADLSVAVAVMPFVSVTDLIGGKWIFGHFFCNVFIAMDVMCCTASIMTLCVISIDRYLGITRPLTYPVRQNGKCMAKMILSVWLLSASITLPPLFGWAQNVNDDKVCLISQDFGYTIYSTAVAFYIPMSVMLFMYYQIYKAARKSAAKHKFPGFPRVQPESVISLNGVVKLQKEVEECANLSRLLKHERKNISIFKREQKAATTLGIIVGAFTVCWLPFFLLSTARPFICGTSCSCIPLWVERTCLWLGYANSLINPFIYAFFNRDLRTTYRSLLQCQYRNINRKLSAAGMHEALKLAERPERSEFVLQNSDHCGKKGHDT
# Chain of 5-hydroxytryptamine receptor 2B (P41595 whole entry): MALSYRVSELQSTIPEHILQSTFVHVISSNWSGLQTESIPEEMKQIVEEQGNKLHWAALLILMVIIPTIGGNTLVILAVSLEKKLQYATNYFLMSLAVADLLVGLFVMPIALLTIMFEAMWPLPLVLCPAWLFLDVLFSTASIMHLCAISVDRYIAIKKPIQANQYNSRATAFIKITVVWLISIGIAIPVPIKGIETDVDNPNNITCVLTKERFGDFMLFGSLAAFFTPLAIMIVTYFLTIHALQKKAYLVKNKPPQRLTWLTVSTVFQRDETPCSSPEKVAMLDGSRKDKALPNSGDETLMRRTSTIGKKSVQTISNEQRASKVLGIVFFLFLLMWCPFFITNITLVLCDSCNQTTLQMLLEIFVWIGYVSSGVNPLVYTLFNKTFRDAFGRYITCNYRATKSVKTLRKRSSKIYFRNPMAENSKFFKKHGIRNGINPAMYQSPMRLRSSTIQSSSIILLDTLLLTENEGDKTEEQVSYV
# Chain of 5-hydroxytryptamine receptor 2A (P28223 whole entry): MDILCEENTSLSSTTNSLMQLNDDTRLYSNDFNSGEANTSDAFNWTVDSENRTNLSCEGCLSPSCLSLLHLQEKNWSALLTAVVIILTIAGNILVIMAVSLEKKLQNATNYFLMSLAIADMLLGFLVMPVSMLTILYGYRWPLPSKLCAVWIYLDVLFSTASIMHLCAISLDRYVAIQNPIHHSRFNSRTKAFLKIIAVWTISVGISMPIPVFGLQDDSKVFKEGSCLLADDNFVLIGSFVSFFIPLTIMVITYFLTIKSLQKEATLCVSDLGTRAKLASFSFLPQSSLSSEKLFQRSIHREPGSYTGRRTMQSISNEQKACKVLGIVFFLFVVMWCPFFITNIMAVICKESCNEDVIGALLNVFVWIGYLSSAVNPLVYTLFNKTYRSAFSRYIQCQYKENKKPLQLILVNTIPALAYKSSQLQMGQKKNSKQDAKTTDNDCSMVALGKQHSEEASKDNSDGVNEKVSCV
Compound,Ki [1] [nM],Ki [2] [nM],Ki [3] [nM],Ki [4] [nM],Ki [5] [nM]
CC(C)n1nc2c(c1-c1ccc(OC(F)(F)F)cc1)CCNCC2,5000,40,20,990,–
Fc1ccc(-c2c3c(nn2C2CCC2)CCNCC3)cc1,–,1,4,45,220
CCn1nc2c(c1-c1ccccc1)CCNCC2,140,60,75,1200,–

# Now from value to compound:
Ki [1] [nM],Ki [2] [nM],Ki [3] [nM],Ki [4] [nM],Ki [5] [nM],Compound
9,1,1,–,20,CC(C)n1nc2c(c1-c1ccc(Cl)cc1)CCNCC2
–,100,–,–,–,Clc1ccc(-c2nn(Cc3ccccc3)c3c2CCNCC3)cc1 [JNJ-18038683 FREE BASE]

# — ChEMBL document CHEMBL4673280, “Discovery and SAR studies of 2-alkyl-3-phenyl-2,4,5,6,7,8-hexahydropyrazolo[3,4-d]azepines as 5-HT inhibitors leading to the identification of a clinical candidate” (Bioorg Med Chem Lett, 2021)
